Results on 19 compounds are retold here after patent publication US12240862B2, “Inhibitors of peptidylarginine deiminases” (Gilead Sciences, Inc., priority 2020, dated 2025).

This assay has as its target T1, human PAD4 (Homo sapiens, UniProt Q9UM07).
T1 construct: human PAD4 (NM_012387), A2P663, was PCR amplified; His-SUMO (N, cleaved yes); made in house; host or cells: E. coli BL21(DE3)
The assay is described as follows: In vitro PAD4 BAEE biochemical assay. Conditions: human PAD4, BAEE substrate; 5 nM PAD4, 2 mM calcium chloride, 3 mM BAEE; geometric mean of multiple experiments. In a few lines:
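Tag-free recombinant hPAD4 (5 nM), 2 mM CaCl2, 3 mM BAEE, 50 mM MOPS pH 7.6, 2 mM DTT; 30 min compound preincubation, 2 h reaction, all 25 °C. EDTA quench; ammonia read via o-phthalaldehyde amine coupling, 1 h.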

T1 sequence (Q9UM07 2-663): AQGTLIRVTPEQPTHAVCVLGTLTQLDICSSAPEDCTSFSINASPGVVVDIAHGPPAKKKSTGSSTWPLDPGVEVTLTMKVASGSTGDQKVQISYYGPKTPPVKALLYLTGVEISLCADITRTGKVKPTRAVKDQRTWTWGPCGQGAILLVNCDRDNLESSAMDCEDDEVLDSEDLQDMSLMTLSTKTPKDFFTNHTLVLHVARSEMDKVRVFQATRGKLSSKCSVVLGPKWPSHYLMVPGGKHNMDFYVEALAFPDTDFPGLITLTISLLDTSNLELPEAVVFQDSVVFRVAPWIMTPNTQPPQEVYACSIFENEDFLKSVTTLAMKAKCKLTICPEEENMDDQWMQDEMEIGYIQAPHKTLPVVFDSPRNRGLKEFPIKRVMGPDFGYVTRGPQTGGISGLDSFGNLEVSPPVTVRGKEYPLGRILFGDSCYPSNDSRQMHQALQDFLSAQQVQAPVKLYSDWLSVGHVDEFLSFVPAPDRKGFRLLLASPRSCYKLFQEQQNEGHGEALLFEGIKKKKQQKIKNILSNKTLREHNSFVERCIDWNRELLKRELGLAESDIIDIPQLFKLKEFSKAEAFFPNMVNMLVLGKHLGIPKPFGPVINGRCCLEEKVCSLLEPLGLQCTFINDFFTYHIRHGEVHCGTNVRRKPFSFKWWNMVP

By IC50 is commonly meant the point on the concentration scale where inhibition reaches its midpoint. For the compound `Cc1c(-c2cc3ccc(N(C(F)F)S(C)(=O)=O)nc3n2CC2CC2)nc2cc(C(=O)N3CCC[C@@H](N)C3)cc(C3CC3)n12` [Example 428, ~{N}-[2-[7-[(3~{R})-3-aminopiperidine-1-carbonyl]-5-cyclopropyl-3-methylimidazo [1,2-a]pyridin-2-yl]-1-(cyclopropylmethyl)pyrrolo [2,3-b]pyridin-6-yl]-~{N}-(difluoromethyl) methanesulfonamide], the IC50 worked out at 1020 nM. As for `COc1cc(C(=O)N2[C@H]3CC[C@@H]2[C@H](N)C3)cc2nc(-c3cc4ccc(N(C(F)F)S(C)(=O)=O)nc4n3CC3CC3)c(CC(C)C)n12` [Example 429, ~{N}-[2-[7-[(1~{R},2~{R}, 4~{S})-2-amino-7-azabicyclo[2.2.1]heptane-7-carbonyl]-5-methoxy-3-(2-methylpropyl)imidazo[1,2-a]pyridin-2-yl]-1-(cyclopropylmethyl)pyrrolo [2,3-b]pyridin-6-yl]-~{N}-(difluoromethyl) methanesulfonamide], the IC50 worked out at 851 nM.

With `COc1cc(C(=O)N2CCC[C@@H](N)C2)cc2nc(-c3cc4ccc(N(C(F)F)S(C)(=O)=O)nc4n3CC3CC3)c(CC(C)C)n12` [Example 430, ~{N}-[2-[7-[(3~{R})-3-aminopiperidine-1-carbonyl]-5-methoxy-3-(2-methylpropyl)imidazo [1,2-a]pyridin-2-yl]-1-(cyclopropylmethyl)pyrrolo [2,3-b]pyridin-6-yl]-~{N}-(difluoromethyl) methanesulfonamide], the IC50 was found to be 943 nM. For the compound `CNC(=O)C1CC1c1c(-c2cc3ccc(N(C(F)F)S(C)(=O)=O)nc3n2CC2CC2)nc2cc(C(=O)N3CCC[C@@H](N)C3)ccn12` (stereo partly shown) [Example 431, 2-[7-[(3~{R})-3-aminopiperidine-1-carbonyl]-2-[1-(cyclopropylmethyl)-6-[difluoromethyl (methylsulfonyl)amino]pyrrolo[2,3-b]pyridin-2-yl]imidazo[1,2-a]pyridin-3-yl]-~{N}-methylcyclopropane-1-carboxamide], the IC50 came out at 2030 nM. On to `CCOC(=O)C1CC1c1c(-c2cc3ccc(N(C(F)F)S(C)(=O)=O)nc3n2CC2CC2)nc2cc(C(=O)N3CCC[C@@H](N)C3)ccn12` (stereo partly shown) [Example 432, ethyl 2-[7-[(3~{R})-3-aminopiperidine-1-carbonyl]-2-[1-(cyclopropylmethyl)-6-[difluoromethyl (methylsulfonyl)amino]pyrrolo[2,3-b]pyridin-2-yl]imidazo[1,2-a]pyridin-3-yl]cyclopropane-1-carboxylate], for which the IC50 came out at 2490 nM. In the case of `CC(C)c1c(-c2cc3ccc(N(C(F)F)S(C)(=O)=O)nc3n2CC2CC2)nc2cc(C(=O)N3CCC[C@@H](N)C3)ccn12` [Example 433, ~{N}-[2-[7-[(3~{R})-3-aminopiperidine-1-carbonyl]-3-propan-2-ylimidazo[1,2-a]pyridin-2-yl]-1-(cyclopropylmethyl)pyrrolo [2,3-b]pyridin-6-yl]-~{N}-(difluoromethyl) methanesulfonamide], the IC50 came out at 7040 nM. Consider `CC(C)c1c(-c2cc3ccc(N(C(F)F)S(C)(=O)=O)nc3n2CC2CC2)nc2cc(C(=O)N3[C@@H]4CC[C@@H](N)[C@H]3CC4)ccn12` [Example 434], for which the IC50 worked out at 3410 nM. Consider `CC1(c2c(-c3cc4ccc(N(C(F)F)S(C)(=O)=O)nc4n3CC3CC3)nc3cc(C(=O)N4CCC[C@@H](N)C4)ccn23)CC1` [Example 435, ~{N}-[2-[7-[(3~{R})-3-aminopiperidine-1-carbonyl]-3-(1-methylcyclopropyl)imidazo[1,2-a]pyridin-2-yl]-1-(cyclopropylmethyl)pyrrolo[2,3-b]pyridin-6-yl]-~{N}-(difluoromethyl) methanesulfonamide], for which the IC50 amounted to 11300 nM. Then `CS(=O)(=O)N(c1ccc2cc(-c3nc4cc(C(=O)N5[C@@H]6CC[C@@H](N)[C@H]5CC6)ccn4c3CC3CC3)n(CC3CC3)c2n1)C(F)F` [Example 436, ~{N}-[2-[7-[(1~{R},2~{R}, 5~{R})-2-amino-8-azabicyclo[3.2.1]octane-8-carbonyl]-3-(cyclopropylmethyl)imidazo [1,2-a]pyridin-2-yl]-1-(cyclopropylmethyl)pyrrolo [2,3-b]pyridin-6-yl]-~{N}-(difluoromethyl) methanesulfonamide], with 202 nM. Take `CC(=O)NCc1c(-c2cc3ccc(N(C(F)F)S(C)(=O)=O)nc3n2CC2CC2)nc2cc(C(=O)N3CCC[C@@H](N)C3)ccn12` [Example 437, ~{N}-[[7-[(3~{R})-3-aminopiperidine-1-carbonyl]-2-[1-(cyclopropylmethyl)-6-[difluoromethyl (methylsulfonyl)amino]pyrrolo[2,3-b]pyridin-2-yl]imidazo[1,2-a]pyridin-3-yl]methyl]acetamide]: the IC50 turned out to be 550 nM. Take `CS(=O)(=O)N(c1ccc2cc(-c3nc4cc(C(=O)N5CCC[C@@H](N)C5)ccn4c3CC3CC3)n(CC3CC3)c2n1)C(F)F` [Example 438, ~{N}-[2-[7-[(3~{R})-3-aminopiperidine-1-carbonyl]-3-(cyclopropylmethyl)imidazo [1,2-a]pyridin-2-yl]-1-(cyclopropylmethyl)pyrrolo [2,3-b]pyridin-6-yl]-~{N}-(difluoromethyl) methanesulfonamide]: the IC50 came out at 194 nM.

As to `COc1cc(C(=O)N2[C@H]3CC[C@@H]2[C@H](N)C3)cc2nc(-c3cc4ccc(N5[C@@H](C)COCS5(=O)=O)nc4n3CC3CC3)c(C)n12` [Example 439, [(1~{R},2~{R},4~{S})-2-amino-7-azabicyclo [2.2.1]heptan-7-yl]-[2-[1-(cyclopropylmethyl)-6-[(5~{S})-5-methyl-3,3-dioxo-1,3,4-oxathiazinan-4-yl]pyrrolo [2,3-b]pyridin-2-yl]-5-methoxy-3-methylimidazo [1,2-a]pyridin-7-yl] methanone], the concentration for half-maximal inhibition (IC50) is 24.3 nM. Take `COc1cc(C(=O)N2[C@H]3CC[C@@H]2[C@H](N)C3)cc2nc(-c3cc4ccc(N5C[C@@H](C)OCS5(=O)=O)nc4n3CC3CC3)c(C)n12` [Example 440, [(1~{R},2~{R},4~{S})-2-amino-7-azabicyclo [2.2.1]heptan-7-yl]-[2-[1-(cyclopropylmethyl)-6-[(6~{R})-6-methyl-3,3-dioxo-1,3,4-oxathiazinan-4-yl]pyrrolo [2,3-b]pyridin-2-yl]-5-methoxy-3-methylimidazo [1,2-a]pyridin-7-yl] methanone]: the IC50 worked out at 207 nM.

For the compound `COc1cc(C(=O)N2[C@H]3CC[C@@H]2[C@H](N)C3)cc2nc(-c3cc4ccc(N5C[C@H](C)OCS5(=O)=O)nc4n3CC3CC3)c(C)n12` [Example 441, [(1~{R},2~{R},4~{S})-2-amino-7-azabicyclo [2.2.1]heptan-7-yl]-[2-[1-(cyclopropylmethyl)-6-[(6~{S})-6-methyl-3,3-dioxo-1,3,4-oxathiazinan-4-yl]pyrrolo[2,3-b]pyridin-2-yl]-5-methoxy-3-methylimidazo[1,2-a]pyridin-7-yl]methanone], the IC50 is 73.1 nM.

On to `COc1cc(C(=O)N2[C@H]3CC[C@@H]2[C@H](N)C3)cc2nc(-c3cc4ccc(N5CCN(Cc6cccnc6)CCS5(=O)=O)nc4n3CC3CC3)c(C)n12` [Example 442, [(1~{R},2~{R},4~{S})-2-amino-7-azabicyclo [2.2.1]heptan-7-yl]-[2-[1-(cyclopropylmethyl)-6-[1,1-dioxo-5-(pyridin-3-ylmethyl)-1,2,5-thiadiazepan-2-yl]pyrrolo [2,3-b]pyridin-2-yl]-5-methoxy-3-methylimidazo [1,2-a]pyridin-7-yl] methanone], for which the IC50 was 40.9 nM. For the compound `COc1cc(C(=O)N2[C@H]3CC[C@@H]2[C@H](N)C3)cc2nc(-c3cc4ccc(N5CCN(C)CCS5(=O)=O)nc4n3CC3CC3)c(C)n12` [Example 443, [(1~{R},2~{R},4~{S})-2-amino-7-azabicyclo [2.2.1]heptan-7-yl]-[2-[1-(cyclopropylmethyl)-6-(5-methyl-1,1-dioxo-1,2,5-thiadiazepan-2-yl)pyrrolo[2,3-b]pyridin-2-yl]-5-methoxy-3-methylimidazo [1,2-a]pyridin-7-yl] methanone], the IC50 worked out at 34.4 nM. On to `COc1cc(C(=O)N2[C@H]3CC[C@@H]2[C@H](N)C3)cc2nc(-c3cc4ccc(N5CCN(c6ccccc6)CCS5(=O)=O)nc4n3CC3CC3)c(C)n12` [Example 444, [(1~{R},2~{R},4~{S})-2-amino-7-azabicyclo [2.2.1]heptan-7-yl]-[2-[1-(cyclopropylmethyl)-6-(1,1-dioxo-5-phenyl-1,2,5-thiadiazepan-2-yl)pyrrolo [2,3-b]pyridin-2-yl]-5-methoxy-3-methylimidazo [1,2-a]pyridin-7-yl] methanone], for which the IC50 was found to be 130 nM. As for `COc1cc(C(=O)N2[C@H]3CC[C@@H]2[C@H](N)C3)cc2nc(-c3cc4ccc(N5C(C)CCCCS5(=O)=O)nc4n3CC3CC3)c(C)n12` (stereo partly shown) [Example 445, [(1~{R},2~{R},4~{S})-2-amino-7-azabicyclo[2.2.1]heptan-7-yl]-[2-[1-(cyclopropylmethyl)-6-(3-methyl-1,1-dioxothiazepan-2-yl)pyrrolo [2,3-b]pyridin-2-yl]-5-methoxy-3-methylimidazo[1,2-a]pyridin-7-yl]methanone], the IC50 was found to be 80.6 nM. `CC[C@H]1CCCS(=O)(=O)N1c1ccc2cc(-c3nc4cc(C(=O)N5[C@H]6CC[C@@H]5[C@H](N)C6)cc(OC)n4c3C)n(CC3CC3)c2n1` [Example 446, [(1~{R},2~{R},4~{S})-2-amino-7-azabicyclo [2.2.1]heptan-7-yl]-[2-[1-(cyclopropylmethyl)-6-[(3~{S})-3-ethyl-1,1-dioxothiazinan-2-yl]pyrrolo[2,3-b]pyridin-2-yl]-5-methoxy-3-methylimidazo[1,2-a]pyridin-7-yl]methanone]: the IC50 is 73.3 nM.
